Bounds are passed on as bounds.

The target of one data set is T1, Mouse FAAH (Mus musculus, UniProt O08914).
T1 construct: Mouse brain was homogenized in 50 mM Tris-HCl (pH 7.4); from tissue; host or cells: mouse brain, 1000 g supernatant
As to the kind of experiment: Mouse FAAH assay (brain). The class given is biochemical. The settings on record: RG7774 10 µM; read-out: Mean ± SEM % inhibition of control, Mouse FAAH. On the procedure:
Mouse brain was homogenized in 50 mM Tris-HCl (pH 7.4) using a glass potter, centrifuged at 1000 g for 10 min, and the pellet was discarded. The supernatant (50 µg) was incubated with [^14C]-AEA (10 µM) (ARC, MO, USA) at 37°C for 15 min (Tris-HCl, pH 9.0) and reactions were stopped with a 2:1 (v/v) mixture of chloroform/methanol. [^14C]-ethanolamine release in the aqueous phase was measured as previously reported. Mouse supernatants (50 µg) were preincubated with RG7774 (10 µM) for 15 min and added directly to the incubation medium. Purified human FAAH (1.7 µg; Cayman Chemical Company, MI, USA) was incubated with [^14C]-AEA (10 µM) (ARC, MO, USA) at 37°C for 15 min (pH 9.0), as previously described. […] for 15 min with 8 different concentrations of RG7774 (0.1-500 µM) and added directly to the incubation medium (250 µL). Control experiments was carried out in the presence of the FAAH inhibitor, URB-597 (100 nM).

The target of the next data set is T2, human CB2R (Homo sapiens, UniProt P34972).
T2 construct: bgal (beta-galactosidase fragment of the PathHunter system); host or cells: CHO-K1
As to the kind of experiment: Competition binding, [^3H]-CP55940, CHO cell membranes. Conditions: competition binding assays. On the procedure: Competition and saturation binding assays were performed using the radiolabeled CB1R/CB2R agonist [^3H]-CP55940 (PerkinElmer, Waltham, MA, United States) in recombinant cell systems, and the newly developed CB2R-selective agonist [^3H]-RO6753361 ([Chicca et al., 2024]) in cells expressing endogenous CB1R/CB2R. Competition assays were conducted by incubating 5, 40, or 40 µg of membrane protein from CHO cells, Jurkat cells or spleen cells, respectively, with 1.5 nM [^3H]-CP55940 or 1.5 nM [^3H]-RO6753361 in the presence or absence of increasing concentrations of ligand (RG7774 or control) for 2 h at 30°C in a final volume of 0.2 mL of assay buffer (50 mmol/L Tris-HCl, 5 mmol/L MgCl2, 2.5 mmol/L EDTA, and 0.5% fatty acid-free BSA [pH 7.4] and 1% DMSO), with gentle shaking. Saturation binding assays were conducted by incubating 1–3 μg, 40 μg, or 30–40 μg of membrane protein from CHO cells, Jurkat cells, or spleen tissue, respectively, with 12 concentrations in the range of 80–0.039 nM [^3H]-CP55940 or [^3H]-RO6753361 for 2 h at 30°C in a final volume of 0.2 mL/well of assay buffer without DMSO. […] IC50 values and Hill slopes were determined with a 4-parameter logistic model using ActivityBase (ID Business Solution, Guilford, United Kingdom) and pKi values were determined using the Cheng-Prusoff equation ([Cheng and Prusoff, 1973]).

Another data set has as its target T3, CYP1A2 (Homo sapiens, UniProt P05177).
T3 construct: pooled human liver microsomes, CYP probe substrate around the reported Km; from tissue; host or cells: pooled human liver microsomes
Kind of data set: CYP inhibition assay. The class given is in vitro ADME. Conditions: 1A2, human liver microsomes. On the procedure:
(§1) CYP assays were conducted as previously described to determine the risk of drug-drug interactions between test compounds and drugs known to be metabolized via different CYPs. […] Conditions were optimized to achieve the linear metabolic rate for the probe substrate reactions. Samples were analyzed by LC-MS/MS. Assays generate two endpoints: IC50 (μM) and percent inhibition at the highest acceptable test concentration (typically 50 μM; lower if highest concentration data are rejected due to insolubility).
(In general: Liver microsomes are a subcellular fraction often used to study metabolism.)

In a further data set the target is T4, CYP2C9 (Homo sapiens, UniProt P11712).
T4 construct: pooled human liver microsomes, CYP probe substrate around the reported Km; from tissue; host or cells: pooled human liver microsomes
Kind of data set: CYP inhibition assay. The format is in vitro ADME. Conditions: 2C9, human liver microsomes. On the procedure: as §1

The target of the next data set is T5, CYP2D6 (Homo sapiens, UniProt P10635).
T5 construct: pooled human liver microsomes, CYP probe substrate around the reported Km; from tissue; host or cells: pooled human liver microsomes
As to the kind of experiment: CYP inhibition assay. The format is in vitro ADME. Conditions: 2D6, human liver microsomes. On the procedure: as §1

The target of another data set is T6, CYP2C8 (Homo sapiens, UniProt P10632).
T6 construct: pooled human liver microsomes, CYP probe substrate around the reported Km; from tissue; host or cells: pooled human liver microsomes
Kind of data set: CYP inhibition assay. The format is in vitro ADME. The settings on record: 2C8, human liver microsomes. On the procedure:
as §1

In a further data set the target is T7, CYP3A4 (Homo sapiens, UniProt P08684).
T7 construct: pooled human liver microsomes, CYP probe substrate around the reported Km; from tissue; host or cells: pooled human liver microsomes
Kind of data set: CYP inhibition assay. The class given is in vitro ADME. The settings on record: 3A4, human liver microsomes. On the procedure: as §1

A further data set addresses T8, CYP2C19 (Homo sapiens, UniProt P33261).
T8 construct: pooled human liver microsomes, CYP probe substrate around the reported Km; from tissue; host or cells: pooled human liver microsomes
As to the kind of experiment: CYP inhibition assay. The format is in vitro ADME. The settings on record: 2C19, human liver microsomes. On the procedure:
as §1

The next data set relates to Human EMT. As to the kind of experiment: Human EMT activity (HaCaT cells). Conditions: RG7774 10 µM. The format is cell-based. On the procedure:
HaCaT cells were seeded (350,000–400,000 cell/well) in triplicate in 12-well plates and incubated for 15 min in PBS at 37°C with [^3H]-N-arachidonoylethanolamine ([^3H]-AEA) (400 nM) (ARC, MO, USA), as previously reported. Experiments were repeated at 4°C in order to subtract passive diffusion from EMT-mediated uptake. RG7774 (10 µM) was preincubated with labeled HaCaT cells for 15 min before adding directly to the incubation medium (PBS). The selective EMT inhibitor, OMDM-1 (40 µM), was used as positive control.

Data set [1] is described as follows: GSH adduct formation in human liver microsomes. The format is in vitro ADME. On the procedure: GSH adduct formation assays were conducted as previously described. Briefly, RG7774 was incubated with human liver microsomes to form reactive metabolites, and glutathione was added as a nucleophile to convert the reactive metabolites into stable conjugates that could be analyzed by MS.

The target of a further data set is Mouse CB1R (Mus musculus, UniProt P47746). Kind of data set: Competitive binding assay in mouse brain membranes, [^3H]-CP55940. Also on record: mouse brain membranes expressing endogenous CB1R; from tissue; host or cells: mouse brain membranes. The settings on record: RG7774 10 µM; read-out: Mean ± SEM % inhibition of control, Mouse CB1R (competitive binding assay). On the procedure:
Mouse brain was resuspended in 2 mM Tris–EDTA, 320 mM sucrose, 5 mM MgCl2 (pH 7.4), homogenized using a glass potter, and centrifuged 3 times, each at 1000 g for 10 min.

T3 sequence (P05177 whole entry): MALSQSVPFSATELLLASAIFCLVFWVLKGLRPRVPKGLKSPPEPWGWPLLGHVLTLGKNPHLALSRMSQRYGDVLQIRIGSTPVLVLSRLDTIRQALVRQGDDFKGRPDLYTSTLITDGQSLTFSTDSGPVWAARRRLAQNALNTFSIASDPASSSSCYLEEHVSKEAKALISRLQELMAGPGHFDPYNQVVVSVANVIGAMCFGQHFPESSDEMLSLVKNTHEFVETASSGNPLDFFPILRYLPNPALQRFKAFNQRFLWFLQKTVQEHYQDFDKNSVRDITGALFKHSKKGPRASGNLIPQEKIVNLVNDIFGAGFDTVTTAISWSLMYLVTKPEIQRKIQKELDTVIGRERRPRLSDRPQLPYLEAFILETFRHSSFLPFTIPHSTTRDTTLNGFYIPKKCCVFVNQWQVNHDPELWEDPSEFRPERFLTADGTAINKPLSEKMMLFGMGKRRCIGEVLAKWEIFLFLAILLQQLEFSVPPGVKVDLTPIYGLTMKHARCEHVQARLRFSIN
T5 sequence (P10635 whole entry): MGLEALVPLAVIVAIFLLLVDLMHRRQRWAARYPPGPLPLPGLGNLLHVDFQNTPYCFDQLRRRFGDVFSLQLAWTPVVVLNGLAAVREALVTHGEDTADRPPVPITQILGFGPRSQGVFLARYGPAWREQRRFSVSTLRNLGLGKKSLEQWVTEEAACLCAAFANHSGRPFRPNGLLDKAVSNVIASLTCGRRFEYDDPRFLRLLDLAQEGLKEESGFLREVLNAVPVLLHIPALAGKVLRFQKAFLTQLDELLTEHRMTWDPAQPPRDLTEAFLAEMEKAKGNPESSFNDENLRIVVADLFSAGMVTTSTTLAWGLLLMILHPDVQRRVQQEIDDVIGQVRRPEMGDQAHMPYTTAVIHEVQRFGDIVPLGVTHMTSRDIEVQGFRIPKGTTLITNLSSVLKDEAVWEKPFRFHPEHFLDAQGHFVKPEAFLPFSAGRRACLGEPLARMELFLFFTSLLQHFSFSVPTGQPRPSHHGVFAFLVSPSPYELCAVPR
T4 sequence (P11712 whole entry): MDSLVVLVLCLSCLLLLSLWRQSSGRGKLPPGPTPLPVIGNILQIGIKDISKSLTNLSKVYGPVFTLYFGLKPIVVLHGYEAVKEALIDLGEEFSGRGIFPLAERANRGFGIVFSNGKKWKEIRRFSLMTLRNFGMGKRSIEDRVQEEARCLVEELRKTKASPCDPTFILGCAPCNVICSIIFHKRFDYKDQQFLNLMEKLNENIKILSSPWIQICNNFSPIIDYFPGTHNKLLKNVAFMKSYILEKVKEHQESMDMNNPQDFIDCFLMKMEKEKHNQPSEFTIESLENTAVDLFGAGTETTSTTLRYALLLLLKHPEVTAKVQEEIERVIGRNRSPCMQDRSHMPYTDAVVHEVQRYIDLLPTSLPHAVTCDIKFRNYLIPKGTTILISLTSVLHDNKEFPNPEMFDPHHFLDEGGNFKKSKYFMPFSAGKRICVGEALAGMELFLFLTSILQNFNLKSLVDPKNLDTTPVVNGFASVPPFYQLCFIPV
T7 sequence (P08684 whole entry): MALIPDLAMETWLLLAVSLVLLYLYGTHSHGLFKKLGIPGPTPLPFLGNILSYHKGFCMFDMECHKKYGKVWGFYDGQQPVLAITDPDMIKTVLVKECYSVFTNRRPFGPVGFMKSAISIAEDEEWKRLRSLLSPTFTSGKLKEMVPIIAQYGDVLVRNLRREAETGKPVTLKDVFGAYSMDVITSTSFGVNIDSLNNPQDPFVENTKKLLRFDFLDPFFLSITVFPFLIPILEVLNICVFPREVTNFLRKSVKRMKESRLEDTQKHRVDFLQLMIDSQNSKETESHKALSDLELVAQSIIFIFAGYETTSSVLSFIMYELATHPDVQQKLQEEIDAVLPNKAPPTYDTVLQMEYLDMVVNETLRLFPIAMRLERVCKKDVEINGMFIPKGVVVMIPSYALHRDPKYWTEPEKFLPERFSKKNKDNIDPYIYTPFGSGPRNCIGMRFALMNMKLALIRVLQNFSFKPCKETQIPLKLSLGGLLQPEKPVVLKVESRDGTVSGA
Sequence of Mouse CB1R (P47746 whole entry): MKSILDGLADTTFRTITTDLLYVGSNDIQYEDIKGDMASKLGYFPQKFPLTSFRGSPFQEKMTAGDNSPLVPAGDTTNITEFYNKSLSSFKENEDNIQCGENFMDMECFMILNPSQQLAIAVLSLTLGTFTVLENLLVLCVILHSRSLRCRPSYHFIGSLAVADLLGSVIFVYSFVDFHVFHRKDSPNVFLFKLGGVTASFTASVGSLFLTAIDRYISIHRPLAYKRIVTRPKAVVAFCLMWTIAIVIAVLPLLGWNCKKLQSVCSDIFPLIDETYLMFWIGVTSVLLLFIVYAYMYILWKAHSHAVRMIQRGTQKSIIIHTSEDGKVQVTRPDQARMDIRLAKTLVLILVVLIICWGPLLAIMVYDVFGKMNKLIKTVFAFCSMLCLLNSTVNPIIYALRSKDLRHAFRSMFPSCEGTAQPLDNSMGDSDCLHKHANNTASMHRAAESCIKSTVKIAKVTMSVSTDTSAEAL
T8 sequence (P33261 whole entry): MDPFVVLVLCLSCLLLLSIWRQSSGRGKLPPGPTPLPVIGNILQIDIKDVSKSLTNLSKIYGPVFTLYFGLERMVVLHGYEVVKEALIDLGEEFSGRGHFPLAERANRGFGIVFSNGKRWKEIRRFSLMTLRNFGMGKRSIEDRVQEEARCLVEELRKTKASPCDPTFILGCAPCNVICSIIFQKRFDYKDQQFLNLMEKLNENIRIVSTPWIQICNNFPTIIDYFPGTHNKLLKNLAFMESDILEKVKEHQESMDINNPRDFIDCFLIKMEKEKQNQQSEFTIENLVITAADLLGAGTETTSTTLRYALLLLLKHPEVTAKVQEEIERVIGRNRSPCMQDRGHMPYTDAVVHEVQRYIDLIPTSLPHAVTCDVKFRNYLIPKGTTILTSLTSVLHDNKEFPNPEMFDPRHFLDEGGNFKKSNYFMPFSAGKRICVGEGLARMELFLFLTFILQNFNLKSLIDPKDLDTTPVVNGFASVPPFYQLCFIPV
T2 sequence (P34972 whole entry, the tested form may be a part): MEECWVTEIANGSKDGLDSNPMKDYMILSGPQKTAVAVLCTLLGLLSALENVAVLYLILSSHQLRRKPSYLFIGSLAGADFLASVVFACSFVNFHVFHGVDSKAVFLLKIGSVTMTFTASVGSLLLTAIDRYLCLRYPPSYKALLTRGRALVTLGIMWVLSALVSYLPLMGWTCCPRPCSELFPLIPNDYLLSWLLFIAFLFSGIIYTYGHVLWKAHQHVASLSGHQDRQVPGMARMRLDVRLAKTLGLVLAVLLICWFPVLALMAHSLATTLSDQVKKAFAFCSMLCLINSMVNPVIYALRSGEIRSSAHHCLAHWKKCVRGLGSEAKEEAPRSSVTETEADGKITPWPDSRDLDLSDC
T6 sequence (P10632 whole entry): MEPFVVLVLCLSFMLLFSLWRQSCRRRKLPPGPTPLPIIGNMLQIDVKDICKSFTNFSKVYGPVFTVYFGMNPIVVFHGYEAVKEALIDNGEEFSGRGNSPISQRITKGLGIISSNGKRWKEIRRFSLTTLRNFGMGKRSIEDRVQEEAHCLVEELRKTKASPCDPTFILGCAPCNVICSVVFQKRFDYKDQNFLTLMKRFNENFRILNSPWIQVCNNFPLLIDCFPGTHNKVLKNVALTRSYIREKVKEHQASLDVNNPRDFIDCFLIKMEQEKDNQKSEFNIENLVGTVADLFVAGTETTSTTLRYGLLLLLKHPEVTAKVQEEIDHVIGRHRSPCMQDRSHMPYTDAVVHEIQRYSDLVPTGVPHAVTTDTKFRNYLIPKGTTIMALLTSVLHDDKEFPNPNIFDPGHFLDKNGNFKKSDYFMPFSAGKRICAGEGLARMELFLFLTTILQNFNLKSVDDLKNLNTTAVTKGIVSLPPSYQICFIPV
T1 sequence (O08914 whole entry): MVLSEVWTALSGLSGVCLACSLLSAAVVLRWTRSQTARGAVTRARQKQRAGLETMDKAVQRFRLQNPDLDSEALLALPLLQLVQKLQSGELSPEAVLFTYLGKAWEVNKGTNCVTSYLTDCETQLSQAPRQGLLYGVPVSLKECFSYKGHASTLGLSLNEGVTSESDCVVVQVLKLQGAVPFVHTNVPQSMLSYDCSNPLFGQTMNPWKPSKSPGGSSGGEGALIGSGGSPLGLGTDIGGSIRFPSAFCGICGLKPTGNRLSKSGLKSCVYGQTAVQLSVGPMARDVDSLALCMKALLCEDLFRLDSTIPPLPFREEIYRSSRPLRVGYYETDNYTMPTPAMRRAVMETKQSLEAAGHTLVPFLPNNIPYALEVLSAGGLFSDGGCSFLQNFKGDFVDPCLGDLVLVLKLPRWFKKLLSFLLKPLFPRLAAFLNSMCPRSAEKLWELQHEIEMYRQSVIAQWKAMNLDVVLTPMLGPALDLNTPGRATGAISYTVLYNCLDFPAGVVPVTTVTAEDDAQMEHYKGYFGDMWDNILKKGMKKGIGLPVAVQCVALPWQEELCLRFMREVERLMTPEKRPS

In general, inhibition refers to how much of the control response was suppressed. For orientation: IC50 means the midpoint of a concentration-inhibition curve. Read a high IC50 as weaker potency. Consider `Cn1nnnc1Cn1nnc2c(N3CC[C@H](O)C3)nc(C(C)(C)C)nc21` [RG7774, (S)-1-(5-tert-butyl-3-[(1-methyl-1H-tetrazol-5-yl)methyl]-3H-[1,2,3]triazolo[4,5-d]pyrimidin-7-yl)pyrrolidin-3-ol], for which the inhibition at 10 µM came to 6 ± 8.7% at Mouse FAAH and 3.8% on Mouse CB1R. The “binding selectivity for recombinant human CB2R over CB1R” value at human CB2R was over 195 fold. Moreover, the IC50 against CYP1A2 was over 50 µM; on CYP2C9, 29 µM; at CYP2D6 it was over 50 µM; at CYP2C8 it was over 50 µM; against CYP3A4, over 50 µM; against CYP2C19, over 50 µM. For the same molecule, the “Mean ± SEM % inhibition of control, Human EMT” value with Human EMT was determined as 4.5 ± 25.5%. The “GSH (human liver microsomes) adducts” value in data set [1] was “none detected”.
